In ChEMBL document CHEMBL4190351, “Synthesis and biological evaluation of novel 6,11-dihydro-5H-benzo[e]pyrimido- [5,4-b][1,4]diazepine derivatives as potential c-Met inhibitors” (Eur J Med Chem, 2017):

Columns and labels:
[1] = target: Hepatocyte growth factor receptor (Homo sapiens, UniProt P08581); test: Inhibition of cMet (unknown origin) using poly(Glu, Tyr)4:1 substrate and ATP incubated fro 60 mins by ELISA
PC-3 = test: Cytotoxicity in human PC3 cells incubated for 72 hrs by sulforhodamine B assay; conditions: PC-3, 72 h
HepG2 = test: Cytotoxicity in human HepG2 cells incubated for 72 hrs by sulforhodamine B assay; conditions: HepG2, 72 h
CAKI-1 = test: Cytotoxicity in human Caki1 cells incubated for 72 hrs by sulforhodamine B assay; conditions: CAKI-1, 72 h
PANC-1 = test: Cytotoxicity in human PANC1 cells incubated for 72 hrs by sulforhodamine B assay; conditions: PANC-1, 72 h

Sequence of Hepatocyte growth factor receptor (P08581 whole entry): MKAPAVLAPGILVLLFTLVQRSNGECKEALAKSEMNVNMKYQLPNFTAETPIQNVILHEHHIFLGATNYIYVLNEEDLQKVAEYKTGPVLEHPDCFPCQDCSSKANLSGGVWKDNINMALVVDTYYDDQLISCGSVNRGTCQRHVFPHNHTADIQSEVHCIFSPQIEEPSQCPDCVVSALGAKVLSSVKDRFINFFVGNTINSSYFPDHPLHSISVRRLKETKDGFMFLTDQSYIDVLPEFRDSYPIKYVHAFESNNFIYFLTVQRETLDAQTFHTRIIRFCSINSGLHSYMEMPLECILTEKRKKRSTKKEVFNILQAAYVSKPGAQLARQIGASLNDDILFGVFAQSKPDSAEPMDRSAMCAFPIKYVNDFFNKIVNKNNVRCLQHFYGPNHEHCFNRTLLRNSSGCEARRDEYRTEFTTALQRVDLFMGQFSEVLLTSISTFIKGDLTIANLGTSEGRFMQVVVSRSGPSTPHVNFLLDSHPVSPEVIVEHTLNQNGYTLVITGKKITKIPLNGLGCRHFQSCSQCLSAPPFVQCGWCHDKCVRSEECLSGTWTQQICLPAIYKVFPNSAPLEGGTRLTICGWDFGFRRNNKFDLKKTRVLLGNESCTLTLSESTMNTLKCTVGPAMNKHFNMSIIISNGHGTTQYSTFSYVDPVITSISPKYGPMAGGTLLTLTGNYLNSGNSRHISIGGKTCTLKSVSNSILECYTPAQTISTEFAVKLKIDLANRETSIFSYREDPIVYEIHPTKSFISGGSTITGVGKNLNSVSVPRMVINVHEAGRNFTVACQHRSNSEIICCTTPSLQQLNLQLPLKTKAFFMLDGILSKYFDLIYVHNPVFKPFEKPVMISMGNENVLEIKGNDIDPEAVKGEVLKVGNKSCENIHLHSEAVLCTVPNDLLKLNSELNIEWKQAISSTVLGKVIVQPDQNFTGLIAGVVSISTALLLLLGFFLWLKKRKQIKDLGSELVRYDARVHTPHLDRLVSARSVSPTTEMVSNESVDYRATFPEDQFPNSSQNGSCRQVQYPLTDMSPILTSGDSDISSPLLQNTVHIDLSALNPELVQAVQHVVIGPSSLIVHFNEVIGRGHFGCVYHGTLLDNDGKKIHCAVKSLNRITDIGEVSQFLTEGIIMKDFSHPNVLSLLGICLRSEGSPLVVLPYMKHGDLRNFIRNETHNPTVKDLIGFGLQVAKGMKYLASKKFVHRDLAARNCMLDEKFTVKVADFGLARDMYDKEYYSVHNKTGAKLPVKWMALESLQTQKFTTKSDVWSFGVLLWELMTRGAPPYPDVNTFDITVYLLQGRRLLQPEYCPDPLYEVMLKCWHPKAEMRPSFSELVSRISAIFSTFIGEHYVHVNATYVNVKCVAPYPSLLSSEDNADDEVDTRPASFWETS

| SMILES | IC50 [1] | further results |
| --- | --- | --- |
| COc1cc2c(cc1OC)Nc1nccc(Oc3ccc(NC(=O)C4(C(=O)Nc5ccc(F)cc5)CC4)cc3)c1NC2 | > 1 µM |  |
| COc1cc2c(cc1OC)Nc1ncnc(Oc3ccc(NC(=O)C4(C(=O)Nc5ccc(F)cc5)CC4)cc3)c1NC2 |  | IC50 (PC-3): 7.12 µM; IC50 (HepG2): 4.91 µM; IC50 (CAKI-1): 1.47 µM; IC50 (PANC-1): 5.34 µM |
| COc1ccc2c(c1)CNc1c(nc(C)nc1Oc1ccc(NC(=O)C3(C(=O)Nc4ccc(F)cc4)CC3)cc1)N2 | > 1 µM |  |
| O=C(Nc1ccc(F)cc1)C1(C(=O)Nc2ccc(Oc3ncnc4c3NCc3ccccc3O4)cc2)CC1 | > 1 µM |  |
| Cc1nc(Oc2ccc(NC(=O)C3(C(=O)Nc4ccc(F)cc4)CC3)cc2)c2c(n1)Oc1ccccc1C=N2 | > 1 µM |  |

The next lines start with results.

| IC50 [1] | SMILES | further results |
| --- | --- | --- |
| > 1 µM | COc1cc2c(cc1OC)C(=O)Nc1c(Oc3ccc(NC(=O)C4(C(=O)Nc5ccc(F)cc5)CC4)cc3F)ccnc1N2 |  |
| > 1 µM | COc1cc2c(cc1OC)Nc1nccc(Oc3ccc(NC(=O)C4(C(=O)Nc5ccc(F)cc5)CC4)cc3F)c1NC2 |  |
| > 1 µM | COc1cc2c(cc1OC)C(=O)Nc1c(Oc3ccc(NC(=O)C4(C(=O)Nc5ccc(F)cc5)CC4)cc3)ccnc1N2 |  |
| > 1 µM | COc1cc2c(cc1OC)Oc1ncnc(Oc3ccc(NC(=O)C4(C(=O)Nc5ccc(F)cc5)CC4)cc3)c1N=C2 |  |
| > 1 µM | O=C(Nc1ccc(F)cc1)C1(C(=O)Nc2ccc(Oc3ncnc4c3N=Cc3ccccc3O4)cc2)CC1 |  |
